Broadly, the IC50 is the midpoint of a concentration-inhibition curve.

From US8952037B2, “Heteroaryloxycarbocyclyl compounds as PDE10 inhibitors” (Amgen Inc., priority 2010, dated 2015) come the findings set out here.

The first test concerns the target PDE10. As to the kind of experiment: MPDE10A7 enzyme inhibition, IMAP TR-FRET assay. The test is classed as biochemical. The conditions noted are these: read-out: PDE10 IC50. As to the method: MPDE10A7 Enzyme Activity and Inhibition
Enzyme Activity. An IMAP TR-FRET assay was used to analyze the enzyme activity (Molecular Devices Corp., Sunnyvale Calif.). 5 μL, of serial diluted PDE10A (BPS Bioscience, San Diego, Calif.) or tissue homogenate was incubated with equal volumes of diluted fluorescein labeled cAMP or cGMP for 60 min in 384-well polystyrene assay plates (Corning, Corning, N.Y.) at room temperature. After incubation, the reaction was stopped by adding 60 μL, of diluted binding reagents and was incubated for 3 hours to overnight at room temperature. The plates were read on an Envision (Perkin Elmer, Waltham, Mass.) for time resolved fluorescence resonance energy transfer. The data were analyzed with GraphPad Prism (La Jolla, Calif.).
Enzyme Inhibition. To check the inhibition profile, 5 μL, of serial diluted compounds were incubated with 5 μL, of diluted PDE10 enzyme (BPS Bioscience, San Diego, Calif.) or tissue homogenate in a 384-well polystyrene assay plate (Corning, Corning, N.Y.) for 30 min at room temperature. After incubation, 10 μL, of diluted fluorescein labeled cAMP or cGMP substrate were added and incubated for 60 min at room temperature. The reaction was stopped by adding 60 μL of diluted binding reagents and plates were read on an Envision (Perkin Elmer, Waltham, Mass.) for time resolved fluorescence resonance energy transfer. The data were analyzed with GraphPad Prism (La Jolla, Calif.).
(In general: Time-resolved FRET reads energy transfer from a long-lived donor to a nearby acceptor.)
For `O=C(CO)N1CCC(c2nccnc2OC2CC(Nc3nc4ccccc4s3)C2)CC1` [Example 73, 1-(4-(3-((1S,3S)-3-(benzo[d]thiazol-2-ylamino)cyclobutoxy)pyrazin-2-yl)piperidin-1-yl)-2-hydroxyethanone], the IC50 was determined as 4.81 nM.
On the same count and under the same terms, to `CN1CCC(c2nccnc2O[C@H]2C[C@@H](Nc3nc4ccccc4s3)C2)CC1` [Example 74, N-((1S,3S)-3-((3-(1-methylpiperidin-4-yl)pyrazin-2-yl)oxy)cyclobutyl)benzo[d]thiazol-2-amine] belongs 49.8 nM; to `F[C@H]1CCN(c2nccnc2OC2CC(Nc3nc4ccccc4s3)C2)C1` (stereo partly drawn) [Example 97, N-((1S,3S)-3-((3-(3-fluoropyrrolidin-1-yl)pyrazin-2-yl)oxy)cyclobutyl)benzo[d]thiazol-2-amine], 3.35 nM; to `O=C1CCN(c2nccnc2OC2CC(Nc3nc4ccccc4s3)C2)CC1` [Example 98, 1-(3-((1S,3S)-3-(benzo[d]thiazol-2-ylamino)cyclobutoxy)pyrazin-2-yl)piperidin-4-one], 21.1 nM.
On the same count and under the same terms, the same measure for `FC1(F)CCN(c2nccnc2OC2CC(Nc3nc4ccccc4s3)C2)CC1` [Example 99, N-((1S,3S)-3-((3-(4,4-difluoropiperidin-1-yl)pyrazin-2-yl)oxy)cyclobutyl)benzo[d]thiazol-2-amine]: 17.7 nM.
Still for that read-out and setting: to `CC(O)C1CCN(c2nccnc2OC2CC(Nc3nc4ccccc4s3)C2)CC1` [Example 102, 1-(1-(3-((1S,3S)-3-(benzo[d]thiazol-2-ylamino)cyclobutoxy)pyrazin-2-yl)piperidin-4-yl)ethanol] belongs 10.8 nM.
For `Fc1ccc(C2CCOCC2)c(OC2CC(Nc3nc4ccccc4s3)C2)n1` [Example 105, N-((1S,3S)-3-((6-fluoro-3-(tetrahydro-2H-pyran-4-yl)pyridin-2-yl)oxy)cyclobutyl)benzo[d]thiazol-2-amine], the IC50 is 0.758 nM.
The same measure, in the same setting: the same measure for `N#Cc1ccc(N[C@H]2C[C@@H](Oc3ncccc3C3CCOCC3)C2)nc1` [Example 106, 6-(((1S,3S)-3-((3-(tetrahydro-2H-pyran-4-yl)pyridin-2-yl)oxy)cyclobutyl)amino)nicotinonitrile]: 590 nM; for `N#Cc1ccc(N[C@H]2C[C@H](Oc3ncccc3C3CCOCC3)C2)nc1` [Example 107, 6-(((1R,3R)-3-((3-(tetrahydro-2H-pyran-4-yl)pyridin-2-yl)oxy)cyclobutyl)amino)nicotinonitrile]: 865 nM.
`FC(F)(F)c1ccc(N[C@H]2C[C@H](Oc3ncccc3C3CCOCC3)C2)nc1` [Example 108, N-((1R,3R)-3-((3-(tetrahydro-2H-pyran-4-yl)pyridin-2-yl)oxy)cyclobutyl)-5-(trifluoromethyl)pyridin-2-amine]: the 50% inhibitory concentration (IC50) was 436 nM.
`FC(F)(F)c1ccc(N[C@H]2C[C@@H](Oc3ncccc3C3CCOCC3)C2)nc1` [Example 109, N-((1S,3S)-3-((3-(tetrahydro-2H-pyran-4-yl)pyridin-2-yl)oxy)cyclobutyl)-5-(trifluoromethyl)pyridin-2-amine]: the concentration for half-maximal inhibition (IC50) came out at 106 nM.
Still for that read-out and setting: to `Clc1ccc(N[C@H]2C[C@@H](Oc3ncccc3C3CCOCC3)C2)nc1` [Example 110, 5-chloro-N-((1S,3S)-3-((3-(tetrahydro-2H-pyran-4-yl)pyridin-2-yl)oxy)cyclobutyl)pyridin-2-amine] belongs 26.2 nM; to `Clc1ccc(N[C@H]2C[C@H](Oc3ncccc3C3CCOCC3)C2)nc1` [Example 111, 5-chloro-N-((1R,3R)-3-((3-(tetrahydro-2H-pyran-4-yl)pyridin-2-yl)oxy)cyclobutyl)pyridin-2-amine], 83.7 nM; to `CC(=O)N1CCC(c2cccnc2OC2CC(NS(=O)(=O)c3ccc(C)cc3)C2)CC1` [Example 114, N-((1S,3S)-3-((3-(1-acetylpiperidin-4-yl)pyridin-2-yl)oxy)cyclobutyl)-4-methylbenzenesulfonamide], 12400 nM.
The same measure, in the same setting: to `CC(=O)N1CCC(c2cccnc2OC2CC(NS(=O)(=O)c3ccc(C)cc3)C2)CC1` [Example 115, N-((1R,3R)-3-((3-(1-acetylpiperidin-4-yl)pyridin-2-yl)oxy)cyclobutyl)-4-methylbenzenesulfonamide] belongs 916 nM.
On to `FC(F)(F)c1ccc(NC2CC(Oc3ncncc3C3CCOCC3)C2)nc1` [Example 116, N-((1R,3R)-3-((5-(tetrahydro-2H-pyran-4-yl)pyrimidin-4-yl)oxy)cyclobutyl)-5-(trifluoromethyl)pyridin-2-amine], for which the IC50 came to 959 nM.
As for `FC(F)(F)c1ccc(NC2CC(Oc3ncncc3C3CCOCC3)C2)nc1` [Example 117, N-((1S,3S)-3-((5-(tetrahydro-2H-pyran-4-yl)pyrimidin-4-yl)oxy)cyclobutyl)-5-(trifluoromethyl)pyridin-2-amine], the IC50 was found to be 321 nM.
For “TRANS-BENZOTHIAZOL-2-YL-{3-[5-FLUORO-3-(TETRAHYDRO-PYRAN-4-YL)-PYRIDIN-2-YL]-CYCLOBUTYL}-AMINE [Example 5B]”, the IC50 came to 0.1 nM.

Still in this test, the particulars now being: separated enantiomers; absolute stereochemistry not determined, value can be for either enantiomer of the pair; read-out: IC50.
With `OC[C@H]1CCCN(c2nccnc2OC2CC(Nc3nc4ccccc4s3)C2)C1` (stereo partly drawn) [Example 91, ((S)-1-(3-((1S,3R)-3-(benzo[d]thiazol-2-ylamino)cyclobutoxy)pyrazin-2-yl)piperidin-3-yl)methanol], the IC50 was found to be 26 nM.
Still for that read-out and setting: to `OC[C@@H]1CCCN(c2nccnc2OC2CC(Nc3nc4ccccc4s3)C2)C1` (stereo partly drawn) [Example 92, ((R)-1-(3-((1S,3S)-3-(benzo[d]thiazol-2-ylamino)cyclobutoxy)pyrazin-2-yl)piperidin-3-yl)methanol] belongs 2.81 nM.
The same measure, in the same setting: the same measure for `C[C@H]1CCN(c2nccnc2OC2CC(Nc3nc4ccccc4s3)C2)C1` (stereo partly drawn) [Example 93, N-((1S,3S)-3-((3-((R)-3-methylpyrrolidin-1-yl)pyrazin-2-yl)oxy)cyclobutyl)benzo[d]thiazol-2-amine]: 3.24 nM; for `C[C@H]1CCN(c2nccnc2OC2CC(Nc3nc4ccccc4s3)C2)C1` (stereo partly drawn) [Example 94, N-((1R,3S)-3-((3-((S)-3-methylpyrrolidin-1-yl)pyrazin-2-yl)oxy)cyclobutyl)benzo[d]thiazol-2-amine]: 8.02 nM; for `N#C[C@@H]1CCN(c2nccnc2OC2CC(Nc3nc4ccccc4s3)C2)C1` (stereo partly drawn) [Example 95, (R)-1-(3-((1S,3S)-3-(benzo[d]thiazol-2-ylamino)cyclobutoxy)pyrazin-2-yl)pyrrolidine-3-carbonitrile]: 0.728 nM.
The same measure, in the same setting: the same measure for `N#C[C@H]1CCN(c2nccnc2OC2CC(Nc3nc4ccccc4s3)C2)C1` (stereo partly drawn) [Example 96, (S)-1-(3-((1S,3R)-3-(benzo[d]thiazol-2-ylamino)cyclobutoxy)pyrazin-2-yl)pyrrolidine-3-carbonitrile]: 5.27 nM.
